Measurements published in ChEMBL document CHEMBL2331210, “New 2-benzylsulfanyl-nicotinic acid based 1,3,4-oxadiazoles: their synthesis and biological evaluation” (2013).
Values after ≈ are worked out from the molar mass of the structure shown.

Assays:
Type in all cases: functional
K562 = assay: Antitumor activity against human K562 cells assessed as cell growth at 0.1 uM; conditions: read-out: Activity
SK-MEL-28 = assay: Antitumor activity against human SK-MEL-28 cells assessed as cell growth at 0.1 uM; conditions: read-out: Activity
[1] = Antitumor activity against human HCC2998 cells assessed as cell growth at 0.1 uM; conditions: HCC 2998, read-out: Activity
T47D = assay: Antitumor activity against human T47D cells assessed as cell growth at 0.1 uM; conditions: read-out: Activity
RXF 393 = assay: Antitumor activity against human RXF393 cells assessed as cell growth at 0.1 uM; conditions: read-out: Activity
DU-145 = assay: Antitumor activity against human DU145 cells assessed as cell growth at 0.1 uM; conditions: read-out: Activity
[2] = Antitumor activity against human EKVX cells assessed as cell growth at 0.1 uM; conditions: read-out: Activity
SF-295 = assay: Antitumor activity against human SF295 cells assessed as cell growth at 0.1 uM; conditions: read-out: Activity
RPMI-8226 = assay: Antitumor activity against human RPMI8226 cells assessed as cell growth at 0.1 uM; conditions: read-out: Activity
PC-3 = assay: Antitumor activity against human PC3 cells assessed as cell growth at 0.1 uM; conditions: read-out: Activity
A549 = assay: Antitumor activity against human A549/ATCC cells assessed as cell growth at 0.1 uM; conditions: read-out: Activity
IGROV-1 = assay: Antitumor activity against human IGROV1 cells assessed as cell growth at 0.1 uM; conditions: read-out: Activity
SNB-75 = assay: Antitumor activity against human SNB75 cells assessed as cell growth at 0.1 uM; conditions: read-out: Activity
Malme-3M = assay: Antitumor activity against human MALME-3M cells assessed as cell growth at 0.1 uM; conditions: read-out: Activity
OVCAR-8 = assay: Antitumor activity against human OVCAR8 cells assessed as cell growth at 0.1 uM; conditions: read-out: Activity
MDA-MB-435 = assay: Antitumor activity against human MDA-MB-435 cells assessed as cell growth at 0.1 uM; conditions: read-out: Activity
HT-29 = assay: Antitumor activity against human HT-29 cells assessed as cell growth at 0.1 uM; conditions: read-out: Activity
NCI-H522 = assay: Antitumor activity against human NCI-H522 cells assessed as cell growth at 0.1 uM; conditions: read-out: Activity
U-251 = assay: Antitumor activity against human U251 cells assessed as cell growth at 0.1 uM; conditions: read-out: Activity
KM12 = assay: Antitumor activity against human KM12 cells assessed as cell growth at 0.1 uM; conditions: read-out: Activity
Aspergillus clavatus = assay: Antimicrobial activity against Aspergillus clavatus MTCC 1323 assessed as growth inhibition measured after overnight incubation by broth dilution method
SF-268 = assay: Antitumor activity against human SF268 cells assessed as cell growth at 0.1 uM; conditions: read-out: Activity
NCI/ADR-RES = assay: Antitumor activity against human NCI/ADR-RES cells assessed as cell growth at 0.1 uM; conditions: read-out: Activity
SK-MEL-5 = assay: Antitumor activity against human SK-MEL-5 cells assessed as cell growth at 0.1 uM; conditions: read-out: Activity
HCT-116 = assay: Antitumor activity against human HCT116 cells assessed as cell growth at 0.1 uM; conditions: read-out: Activity
NCI-H460 = assay: Antitumor activity against human NCI-H460 cells assessed as cell growth at 0.1 uM; conditions: read-out: Activity
OVCAR-3 = assay: Antitumor activity against human OVCAR3 cells assessed as cell growth at 0.1 uM; conditions: read-out: Activity
MCF7 = assay: Antitumor activity against human MCF7 cells assessed as cell growth at 0.1 uM; conditions: read-out: Activity
SR = assay: Antitumor activity against human SR cells assessed as cell growth at 0.1 uM; conditions: read-out: Activity
TK-10 = assay: Antitumor activity against human TK10 cells assessed as cell growth at 0.1 uM; conditions: read-out: Activity
Staphylococcus aureus = assay: Antimicrobial activity against Staphylococcus aureus MTCC 96 assessed as growth inhibition measured after overnight incubation by broth dilution method
MDA-MB-468 = assay: Antitumor activity against human MDA-MB-468 cells assessed as cell growth at 0.1 uM; conditions: read-out: Activity
OVCAR-5 = assay: Antitumor activity against human OVCAR5 cells assessed as cell growth at 0.1 uM; conditions: read-out: Activity
HL-60 = assay: Antitumor activity against human HL60(TB) cells assessed as cell growth at 0.1 uM; conditions: read-out: Activity
HCT-15 = assay: Antitumor activity against human HCT15 cells assessed as cell growth at 0.1 uM; conditions: read-out: Activity
LOX IMVI = assay: Antitumor activity against human LOXIMVI cells assessed as cell growth at 0.1 uM; conditions: read-out: Activity
NCI-H23 = assay: Antitumor activity against human NCI-H23 cells assessed as cell growth at 0.1 uM; conditions: read-out: Activity
SF-539 = assay: Antitumor activity against human SF539 cells assessed as cell growth at 0.1 uM; conditions: read-out: Activity
M14 = assay: Antitumor activity against human M14 cells assessed as cell growth at 0.1 uM; conditions: read-out: Activity
CAKI-1 = assay: Antitumor activity against human CAKI-1 cells assessed as cell growth at 0.1 uM; conditions: read-out: Activity
SK-OV-3 = assay: Antitumor activity against human SKOV3 cells assessed as cell growth at 0.1 uM; conditions: read-out: Activity
MOLT-4 = assay: Antitumor activity against human MOLT4 cells assessed as cell growth at 0.1 uM; conditions: read-out: Activity
ACHN = assay: Antitumor activity against human ACHN cells assessed as cell growth at 0.1 uM; conditions: read-out: Activity
Escherichia coli = assay: Antimicrobial activity against Escherichia coli MTCC 443 assessed as growth inhibition measured after overnight incubation by broth dilution method
SNB-19 = assay: Antitumor activity against human SNB19 cells assessed as cell growth at 0.1 uM; conditions: read-out: Activity
Candida albicans = assay: Antimicrobial activity against Candida albicans MTCC 227 assessed as growth inhibition measured after overnight incubation by broth dilution method
SN12C = assay: Antitumor activity against human SN12C cells assessed as cell growth at 0.1 uM; conditions: read-out: Activity
SW-620 = assay: Antitumor activity against human SW620 cells assessed as cell growth at 0.1 uM; conditions: read-out: Activity
UACC-62 = assay: Antitumor activity against human UACC62 cells assessed as cell growth at 0.1 uM; conditions: read-out: Activity
[3] = Antitumor activity against human Hs 578T cells assessed as cell growth at 0.1 uM; conditions: read-out: Activity
BT-549 = assay: Antitumor activity against human BT549 cells assessed as cell growth at 0.1 uM; conditions: read-out: Activity
UACC-257 = assay: Antitumor activity against human UACC257 cells assessed as cell growth at 0.1 uM; conditions: read-out: Activity
HOP-62 = assay: Antitumor activity against human HOP62 cells assessed as cell growth at 0.1 uM; conditions: read-out: Activity
Streptococcus pyogenes = assay: Antimicrobial activity against Streptococcus pyogenes MTCC 442 assessed as growth inhibition measured after overnight incubation by broth dilution method
CCRF-CEM = assay: Antitumor activity against human CCRF-CEM cells assessed as cell growth at 0.1 uM; conditions: read-out: Activity
UO-31 = assay: Antitumor activity against human UO31 cells assessed as cell growth at 0.1 uM; conditions: read-out: Activity
MDA-MB-231 = assay: Antitumor activity against human MDA-MB-231/ATCC cells assessed as cell growth at 0.1 uM; conditions: read-out: Activity
A498 = assay: Antitumor activity against human A498 cells assessed as cell growth at 0.1 uM; conditions: read-out: Activity
Aspergillus niger = assay: Antimicrobial activity against Aspergillus niger MTCC 282 assessed as growth inhibition measured after overnight incubation by broth dilution method
OVCAR-4 = assay: Antitumor activity against human OVCAR4 cells assessed as cell growth at 0.1 uM; conditions: read-out: Activity
Pseudomonas aeruginosa = assay: Antimicrobial activity against Pseudomonas aeruginosa MTCC 2488 assessed as growth inhibition measured after overnight incubation by broth dilution method
NCI-H226 = assay: Antitumor activity against human NCI-H226 cells assessed as cell growth at 0.1 uM; conditions: read-out: Activity
[4] = tested on: Mycobacterium tuberculosis; assay: Antitubercular activity against Mycobacterium tuberculosis H37Rv assessed as growth inhibition after 12 to 28 days by L.J. agar MIC method

What does the source list for `c1ccc(CSc2ncccc2-c2nnc(SCCN3CCOCC3)o2)cc1`?
growth at 0.1 µM (K562): 117%; growth at 0.1 µM (SK-MEL-28): 107%; growth at 0.1 µM [1]: 116%; growth at 0.1 µM (T47D): 101%; growth at 0.1 µM (RXF 393): 123%; growth at 0.1 µM (DU-145): 112%; growth at 0.1 µM [2]: 108%; growth at 0.1 µM (SF-295): 106%; growth at 0.1 µM (RPMI-8226): 104%; growth at 0.1 µM (PC-3): 111%; growth at 0.1 µM (A549): 112%; growth at 0.1 µM (IGROV-1): 98.3%; growth at 0.1 µM (SNB-75): 79.6%; growth at 0.1 µM (Malme-3M): 111%; growth at 0.1 µM (OVCAR-8): 109%; growth at 0.1 µM (MDA-MB-435): 114%; growth at 0.1 µM (HT-29): 111%; growth at 0.1 µM (NCI-H522): 105%; growth at 0.1 µM (U-251): 117%; growth at 0.1 µM (KM12): 107%; MIC (Aspergillus clavatus): 1000 µg/mL (≈ 2410 µM); growth at 0.1 µM (SF-268): 107%; growth at 0.1 µM (NCI/ADR-RES): 107%; growth at 0.1 µM (SK-MEL-5): 102%; growth at 0.1 µM (HCT-116): 108%; growth at 0.1 µM (NCI-H460): 122%; growth at 0.1 µM (OVCAR-3): 120%; growth at 0.1 µM (MCF7): 94.4%; growth at 0.1 µM (SR): 104%; growth at 0.1 µM (TK-10): 118%; MIC (Staphylococcus aureus): 500 µg/mL (≈ 1210 µM); growth at 0.1 µM (MDA-MB-468): 98.3%; growth at 0.1 µM (OVCAR-5): 119%; growth at 0.1 µM (HL-60): 101%; growth at 0.1 µM (HCT-15): 105%; growth at 0.1 µM (LOX IMVI): 108%; growth at 0.1 µM (NCI-H23): 104%; growth at 0.1 µM (SF-539): 132%; growth at 0.1 µM (M14): 108%; growth at 0.1 µM (CAKI-1): 100%; growth at 0.1 µM (SK-OV-3): 109%; growth at 0.1 µM (MOLT-4): 103%; growth at 0.1 µM (ACHN): 124%; MIC (Escherichia coli): 200 µg/mL (≈ 482 µM); growth at 0.1 µM (SNB-19): 115%; MIC (Candida albicans): 1000 µg/mL (≈ 2410 µM); growth at 0.1 µM (SN12C): 114%; growth at 0.1 µM (SW-620): 107%; growth at 0.1 µM (UACC-62): 113%; growth at 0.1 µM [3]: 133%; growth at 0.1 µM (BT-549): 112%; growth at 0.1 µM (UACC-257): 147%; growth at 0.1 µM (HOP-62): 116%; MIC (Streptococcus pyogenes): 200 µg/mL (≈ 482 µM); growth at 0.1 µM (CCRF-CEM): 103%; growth at 0.1 µM (UO-31): 89.4%; growth at 0.1 µM (MDA-MB-231): 114%; growth at 0.1 µM (A498): 107%; MIC (Aspergillus niger): 1000 µg/mL (≈ 2410 µM); growth at 0.1 µM (OVCAR-4): 106%; MIC (Pseudomonas aeruginosa): 200 µg/mL (≈ 482 µM); growth at 0.1 µM (NCI-H226): 114%; growth inhibition (GI) [4]: 99%; MIC ([4]; Mycobacterium tuberculosis, H37Rv): 25 µg/mL (≈ 60.3 µM)
